# Source: patent US8501924B2, “Nucleophosmin protein (NPM) mutants, corresponding gene sequences and uses thereof” (priority 2004, dated 2013)
# “Also recorded” adds a separate entry of the source.
# How the values were obtained:
# Crm1 [1] = target: T1, Crm1 (Homo sapiens, UniProt O14980); experiment: Nuclear re-localization of mutant NPM in OCI/AML3 cells; assay type: cell-based; details: OCI/AML3, mutation A, LMB 20 ng/ml
# Crm1 [2] = target: T2, Crm1 (Mus musculus, UniProt Q6P5F9); experiment: Inhibition of Crm1-dependent nuclear exportation in NIH-3T3 cells transfected with eGFP-NPM constructs; assay type: cell-based, murine; details: for sub-cellular localization of NPM mutant proteins after treatment (confocal microscopy): transfected NIH3T3 cells (HI299 or NIH3T3), leptomycin B 20 ng/ml
# T2 construct: endogenous in cells; host or cells: NIH-3T3 cells, transfected only with eGFP-NPM reporter constructs
# T2 sequence (Q6P5F9 whole entry): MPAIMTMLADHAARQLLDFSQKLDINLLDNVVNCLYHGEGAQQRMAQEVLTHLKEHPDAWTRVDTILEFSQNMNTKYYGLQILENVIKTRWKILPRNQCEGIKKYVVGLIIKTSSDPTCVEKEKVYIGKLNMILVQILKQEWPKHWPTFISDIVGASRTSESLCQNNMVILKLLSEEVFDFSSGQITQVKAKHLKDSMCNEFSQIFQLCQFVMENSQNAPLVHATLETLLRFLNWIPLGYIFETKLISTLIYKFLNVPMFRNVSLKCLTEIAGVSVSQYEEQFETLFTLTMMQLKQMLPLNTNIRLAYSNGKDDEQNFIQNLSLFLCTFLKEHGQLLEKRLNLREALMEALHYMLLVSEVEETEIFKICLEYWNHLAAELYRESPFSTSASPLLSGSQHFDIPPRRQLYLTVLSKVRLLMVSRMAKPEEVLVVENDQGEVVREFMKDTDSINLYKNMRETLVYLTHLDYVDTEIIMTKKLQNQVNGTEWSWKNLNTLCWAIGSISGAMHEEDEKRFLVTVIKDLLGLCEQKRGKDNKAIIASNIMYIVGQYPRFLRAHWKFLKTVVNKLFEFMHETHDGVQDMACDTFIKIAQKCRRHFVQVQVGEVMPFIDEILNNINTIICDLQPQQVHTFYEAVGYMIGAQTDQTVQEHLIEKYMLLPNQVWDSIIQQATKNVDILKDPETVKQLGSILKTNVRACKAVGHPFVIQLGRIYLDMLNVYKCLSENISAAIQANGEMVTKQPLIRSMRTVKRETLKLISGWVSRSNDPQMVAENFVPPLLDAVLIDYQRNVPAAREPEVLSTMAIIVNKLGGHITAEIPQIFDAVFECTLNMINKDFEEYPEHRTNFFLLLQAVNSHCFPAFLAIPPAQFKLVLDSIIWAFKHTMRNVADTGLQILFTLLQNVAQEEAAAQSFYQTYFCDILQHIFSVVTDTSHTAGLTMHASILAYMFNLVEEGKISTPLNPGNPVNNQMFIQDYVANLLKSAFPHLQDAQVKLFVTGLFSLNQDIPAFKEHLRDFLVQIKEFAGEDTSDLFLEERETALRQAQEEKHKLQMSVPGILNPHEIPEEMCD
# Experimental: NIH-3T3 cells were transfected using Lipofectamin 2000 (Invitrogen Carlsbad, Calif., USA) following the manufacturer instructions. After 24 hours, the cells grown on the slide were incubated with cycloeximide (Merck Biosciences Ltd, Nottingham UK) 10 micro grams/ml (30 minutes) and leptomycin B (Merck Biosciences Ltd, Nottingham UK) 20 ng/ml (5 hours), or other Crm1 inhibitors such as ratjadons A and C (Alexis Biochemicals, Carlsbad, Calif., USA) 20 ng/ml (5 hours).
# The cells were fixed in 4% paraformaldehyde (10 minutes) for immunofluorescence and confocal microscope analysis.
# For “time course” experiments, transfected cells were transferred inside an Attofluor chamber (Molecular Probes, Eugene, Oreg., USA) and were observed using a MRC-1024 confocal apparatus (Biorad Cambridge, UK) assembled on an Olympus IMT-2 microscope. The images of a single section were recorded before and after the addition of leptomicin B, at 60 second intervals, using the time-series function of Laser-Sharp program (BioRad). The excitation wavelength was 488 nm and images were detected using a filter from 505 to 550 nm on the PMT2.
# The images were processed and analysed using the well known ImageJ program (Rasband WS, Image J, U.S. National Institutes of Health, Bethesda, Md., USA, http://rsb.info.nih.gov/ij/, 1997-2005).
# For western-blotting analyses of the sub-cellular distribution of GFP-NPM mutant A protein, NIH-3T3 cells transfected with GFP vector or with GFP-NPM mutant A, as described above, were incubated with leptomicin B 20 ng/ml (or with methanol as control) without cycloeximide for 3 or 6 hours. Then cells were harvested, washed with PBS and lysed in hypotonic buffer according to the method of Schreiber et al. (1989). The supernatant was preserved as cytoplasmic fraction. The pellet, containing nuclei, was again washed with the hypotonic buffer, then solubilised in a hypertonic buffer and boiled in a solution containing SDS before loading.
# Equivalent dilutions (with the same cell number) of cytoplasmic and nuclear fractions were loaded, blotted on nitrocellulose and incubated with an anti-GFP monoclonal antibody (Roche, Indianapolis, Ind., USA) for Western-blot analysis of the distribution of GFP-NPM mutant A.
# Crm1 [3] = target: T1, Crm1; experiment: Inhibition of Crm1-dependent nuclear exportation in transfected H1299 cells; assay type: cell-based; details: HI299 cells
# Experimental: The H1299 cells were seeded on the surface of six-well plates 24 hours before transfection. 5 μg of expression vector encoding for wild type HA-NPM, GFP-NPM-mutant A, or both, were transfected using the precipitation method with calcium-phosphate. After 24 hours, the cells were treated with 20 nM leptomycin B, a Crml specific inhibitor (Sigma, St. Louis, Mo., USA) for 8 hours or not treated, respectively. The cells then were fixed in 4% paraformaldehyde for the immunofluorescence study.
# The DAPI staining was used to visualise nucleuses of H1299 cells transfected with the GFP-NPM-mutant A and with GFP-NPM wt. For Flag-HA constructs, the fixed cells were made permeable with 0.2% Triton-X 100 (10 minutes) followed by blocking with 10% anti-goat serum (30 minutes). Then primary anti-HA antibody was added (1:1000, Roche Indianapolis, Ind., USA) for 1 hour followed by incubation for 30 minutes with the secondary Alexa-568 antibody (1:1000, Molecular Probes, Oregon, USA). The images were taken using a digital camera with the Spot 4.09 program (Diagnostic Instruments, Sterling Heights, Mich., USA).
# Crm1 [4] = target: T1, Crm1; experiment: Nuclear re-localization of NPM in leukaemic cells of NPMc+ AML patients (mutation A); assay type: cell-based; details: NPMc+ AML patient cells, leptomycin B 20 ng/ml
# Experimental: Cells deriving from two patients with NPMc+AML (carrying the mutation A) and from OCI/AML3 cellular line were harvested in medium (10^6 cell/ml in 24-well plates) and incubated at 37° C. with 5% CO2 […]. After the incubation overnight with leptomycin B (20 ng/ml), the cells were washed with PBS and centrifuged. The cell pellet was fixed in B5 and paraffin for the immunostaining.
# The NPM coloration of paraffin embedded sections of AML cases containing the mutation A was carried out with monoclonal anti-NPM antibodies followed by a Alexa 488 conjugated secondary (Molecular Probes, Oregon, USA); the nuclei were contra-stained with propidium iodide. The images were taken with a confocal microscope Zeiss LSM 510 (Carl Zeiss, Jena, Del.), using laser excitation wavelengths at 488 nm (for ALexa 488), 543 nm (for Texas Red and the propidium iodide) and 633 nm (for TO-PRO-3), respectively. The laser intensity tuning, diameter of pinholes, and configuration of the light detection were set to achieve the best signal/noise ratio and avoid fluorescence crossover. The images were then transferred to a SGI Octane workstation (Silicon graphics, Mountain View, Calif., USA) for further elaboration; 3D reconstruction was made with the shade or iso-surface method using the Imaris program (Bitplane, Zurich, CH).
# [5] = NIH-3T3 cells, with and without LMB
# T1 sequence (O14980 whole entry): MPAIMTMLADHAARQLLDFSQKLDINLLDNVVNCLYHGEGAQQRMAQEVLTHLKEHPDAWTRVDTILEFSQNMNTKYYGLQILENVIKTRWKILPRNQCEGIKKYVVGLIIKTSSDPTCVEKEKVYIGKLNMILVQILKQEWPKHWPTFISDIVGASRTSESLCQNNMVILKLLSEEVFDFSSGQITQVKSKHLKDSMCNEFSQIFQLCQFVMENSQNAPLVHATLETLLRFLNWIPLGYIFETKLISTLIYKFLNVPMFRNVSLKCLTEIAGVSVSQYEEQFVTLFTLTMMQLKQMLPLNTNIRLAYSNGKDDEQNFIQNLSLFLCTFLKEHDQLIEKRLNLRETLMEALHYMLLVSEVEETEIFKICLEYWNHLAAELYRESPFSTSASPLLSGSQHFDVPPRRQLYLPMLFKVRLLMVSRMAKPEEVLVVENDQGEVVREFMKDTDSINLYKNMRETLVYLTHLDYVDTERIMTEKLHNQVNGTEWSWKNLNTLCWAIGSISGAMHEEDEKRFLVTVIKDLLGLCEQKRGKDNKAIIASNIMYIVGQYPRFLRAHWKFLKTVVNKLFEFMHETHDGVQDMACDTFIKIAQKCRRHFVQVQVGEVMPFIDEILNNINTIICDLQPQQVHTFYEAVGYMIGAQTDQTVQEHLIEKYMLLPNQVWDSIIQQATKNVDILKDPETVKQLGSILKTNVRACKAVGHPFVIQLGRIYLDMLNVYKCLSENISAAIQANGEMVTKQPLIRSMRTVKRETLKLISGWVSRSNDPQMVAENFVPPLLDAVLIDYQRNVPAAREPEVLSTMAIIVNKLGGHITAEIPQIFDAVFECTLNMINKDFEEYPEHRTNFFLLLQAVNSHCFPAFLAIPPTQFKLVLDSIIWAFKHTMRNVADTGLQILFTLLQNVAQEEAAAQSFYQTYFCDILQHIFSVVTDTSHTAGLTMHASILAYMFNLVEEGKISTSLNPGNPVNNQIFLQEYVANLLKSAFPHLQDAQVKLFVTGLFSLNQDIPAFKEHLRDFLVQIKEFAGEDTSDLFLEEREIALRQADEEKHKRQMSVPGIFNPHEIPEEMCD
structure (smiles),measurement,setting,value
"CCC(=C/[C@H](C)C/C=C/C(C)=C/[C@@H](C)C(=O)[C@@H](C)[C@H](O)[C@@H](C)C/C(C)=C/C(=O)O)/C=C/[C@@H]1OC(=O)C=C[C@@H]1C [Leptomycin B, leptomycin B]",NPM localization in OCI/AML3 cells (376 staining),Crm1 [1],re-localization of NPM in the nucleoplasm
same,re-localization of type E NPM mutant (tryptophan 288 kept),"Crm1 [2]; NIH-3T3 cells, after Leptomicin B",not only at nucleoplasma but also at nucleolus level
same,mutant type A re-localized in nucleus,"Crm1 [2]; NIH-3T3 cells, eGFP-NPMmutA, 20 minutes after LMB",About 50%
same,time for the whole re-localization process to be completed,"Crm1 [2]; NIH-3T3 cells, eGFP-NPMmutA, LMB",1 h
same,Western blot sub-cellular distribution of GFP-NPM mutant A,"Crm1 [2]; NIH-3T3 cells, leptomicin B 20 ng/ml, 3 or 6 hours, no cycloeximide",progressively accumulates in the pellet containing nucleuses
same,eGFP-NPMmutA fluorescence in regions of interest over time,"Crm1 [2]; NIH-3T3 cells, time course after addition of LMB",reduction of fluorescence in cytoplasm and Golgi area and concomitant fluorescence increase in nucleoplasm
same,localization of GFP-NPMwt,Crm1 [2]; [5],localizes in the nucleoli both in the presence and in the absence of LMB
same,localization of NPM mut A no-NES,Crm1 [2]; [5],localized in the nucleoplasm both in presence and in absence of LMB
same,localization of mutant A with both tryptophans re-inserted (C288W+A290W),"Crm1 [2]; NIH-3T3 cells, with and without Leptomicin B","locates completely in nucleoli, independently from the presence of Leptomicin B"
same,sub-cellular localization of NPM mutant proteins after treatment (confocal microscopy),Crm1 [2]; listed as LMB,repositions in nucleoplasm
same,sub-cellular localization of NPM mutant proteins after treatment (confocal microscopy),Crm1 [2]; listed as Leptomicin B,"re-localized from the cytoplasmic to the nuclear compartment (nucleoplasm); also recorded: re-localized in the nucleus and, specifically, in nucleoplasm"
same,localization of eGFP NPM mutants A to D,"Crm1 [3]; in the presence of LMB 20 nM, 8 hours",completely replaced in the nucleus in the presence of LMB
same,localization of eGFP-NPMwt,Crm1 [3]; with and without LMB,localized in nucleoli both in the presence and in the absence of LMB
same,"NPM localization in purified leukaemic cells (376 staining, confocal)",Crm1 [4],NPM is in nucleus again
